Results as given in patent US12678507B2, “Protein tyrosine kinase 6 (PTK6) degradation / disruption compounds and methods of use” (Icahn School of Medicine at Mount Sinai, priority 2018, dated 2026).

How the values were obtained:
Format in all cases: cell-based
[1] = system: MCF7 cells; test: 3D Cell Titer Glo viability of MCF7 ER+ breast cancer cells; settings: 0, 1, 2 and 5 μM, 4 days, 3D Cell Titer Glo (FIG. 7)
Protocol: FIG. 7a. PTK6 degrader treatment suppresses growth of ER+ breast cancer cells. ER+ breast cancer cells (MCF-7) were treated with indicated concentrations of top candidate degraders, negative control compounds or PTK6 kinase activity inhibitor for 24 hours, lysed and proteins were resolved by SDS-PAGE. PTK6 expression was interrogated by Western analysis. FIG. 7b. MCF-7 cells were seeded into 3D Matrigel cultures and treated with indicated PTK6 degraders or PTK6 kinase inhibitor for 4 days. Viability was quantified using 3-D Cell Titer glo (Promega).
MCF7 cells were treated with YX39-103, YX39-105, and compound 21d at 0, 1, 2 and 5 μM for 4 days using 3D Cell Titer Glo (Promega) assay conditions.
MDA-MB231, MCF-7, OV2008 and Hey C2 cells (3,000 cells) were added to 8-well chamber slides (BD Biosciences) coated with 50 μl of growth factor-reduced Matrigel™ Matrix basement membrane (Corning). Treatment with degrader was begun later the same day. Media was replaced every 3 days. Cells were imaged using the Axiovert 25 inverted microscope (Carl Zeiss AB). CellTiter-Glo 3D Cell Viability Assay (Promega) was used to quantitate viability of cells grown in Matrigel™ in 96-well plates.

[2] = system: CP70 cells; test: 3D culture viability of platinum resistant ovarian cancer cells CP70; settings: 2 uM, 6 days, 3D culture (FIG. 8)
Protocol: FIG. 8. Treatment with PTK6 degraders, but not kinase activity inhibitor, suppress viability of chemotherapy-resistant ovarian cancer cells (CP70). Cells were seeded into 3D Matrigel cultures and treated with compounds (2 uM) for 6 days. Viability was assessed using 3D Cell Titre glo assay (Promega)
Platinum resistant ovarian cancer cells CP70 were treated with PTK6 degrader or kinase inhibitor P21d (2 uM) for 6 days in 3D culture. Viability after 6 days was assessed by 3D Cell Titer glo.

[3] = molecular target: T1, PTK6 (Homo sapiens, UniProt Q13882); test: Western blot of PTK6 protein levels in MDA-MB231 cells; settings: MDA-231 (MDA-MB231) cells, 500 nM, 24 hours, Western blot (FIGS. 3-5)
T1 construct: endogenous in cells; host or cells: MDA-MB231 cells (ATCC)
T1 sequence (Q13882 whole entry): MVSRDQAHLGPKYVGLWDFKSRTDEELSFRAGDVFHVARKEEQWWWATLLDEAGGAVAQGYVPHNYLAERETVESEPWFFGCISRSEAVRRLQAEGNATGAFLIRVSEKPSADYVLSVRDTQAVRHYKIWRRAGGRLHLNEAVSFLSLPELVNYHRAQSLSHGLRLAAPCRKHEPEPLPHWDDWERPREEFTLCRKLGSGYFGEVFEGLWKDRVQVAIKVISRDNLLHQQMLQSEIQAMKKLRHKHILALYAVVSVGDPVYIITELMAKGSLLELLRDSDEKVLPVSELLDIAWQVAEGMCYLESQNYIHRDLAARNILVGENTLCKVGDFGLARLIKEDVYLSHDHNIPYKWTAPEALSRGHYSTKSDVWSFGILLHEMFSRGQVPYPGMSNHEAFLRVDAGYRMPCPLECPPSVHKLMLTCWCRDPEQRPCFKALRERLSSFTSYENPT
Protocol: FIGS. 2-5. Effects of exemplary compounds on reducing PTK6 protein levels in breast cancer cells. Triple negative MDA-MB231 cells were treated for 24 hours with 500 nM, 2 uM or 2.5 uM of test compound and lysed. Proteins were resolved by SDS/PAGE and immunoblotted with antibody to PTK6 (Santa Cruz, Cell Signaling) or GAPDH loading control (Cell Signaling).
FIG. 13. PTK6 degraders suppress PTK6 expression. MDA-MB231 cells were treated with compounds (500 nM or 1 uM) for 24 hours in monolayer cultures. Cells were lysed and lysates were probed with anti-PTK6 antibody.
MDA-MB231 cells were treated with DMSO or indicated compounds at 2.5 uM, 2 uM or 500 nM for 24 hours.
MDA-MB231 cells were treated with compounds (500 nM or 1 uM) for 24 hours in monolayer cultures. Cells were lysed and lysates were probed with anti-PTK6 antibody.
Cells were lysed in 1% NP-40 lysis buffer containing NaF, Na3VO4, Leupeptin, PMSF, aprotinin, and phosphatase inhibitor (PhosSTOP, Roche) as described previously (Irie et al., 2010). Cleared cell lysates were stored at −80° C. and were analyzed by western analysis as described previously (Irie et al., 2010).

[4] = system: MDA-MB231 cells; test: 3D Matrigel culture of MDA-MB231 triple negative breast cancer cells (growth, invasive branching, viability); settings: 1 μM, 3 days, 3D cultures (FIG. 6)
Protocol: FIG. 6a. PTK6 degraders, but not kinase activity inhibitor suppress viability in 3D cultures. MDA-MB231 triple negative breast cancer cells were seeded into 3D Matrigel cultures (4×10^3 cells/well) and treated with indicated PTK6 degraders, negative control compounds or PTK6 kinase activity inhibitor at 1 uM for 5 days with re-feeding of compound after 3 days in culture. Viability was assessed using 3D Cell Titer glo (Promega). FIG. 6b. Expression of PTK6 in cells treated with PTK6 degraders, negative control compounds or PTK6 kinase activity inhibitor was assessed after 24 hour treatment in monolayer cultures with 1 uM of compound. Cells were lysed and proteins were resolved and probed with anti-PTK6 antibody (Cell Signaling)
FIG. 12a. […] Expression of PTK6 in cells treated with PTK6 degraders, negative control compounds or PTK6 kinase activity inhibitor was assessed after 24 hour treatment in monolayer cultures with 1 uM of compound. […] Viability was assessed using 3D Cell Titer glo (Promega). […]
MDA-MB231 triple negative breast cancer cells were seeded into 3D Matrigel cultures (4×10^3 cells/well) and treated with indicated PTK6 degraders, negative control compounds or PTK6 kinase activity inhibitor at 1 uM for 6 days with re-feeding of compound after 3 days in culture (FIG. 12B). Viability was assessed using 3D Cell Titer glo (Promega). […]

Row | SMILES | viability of MCF7 cells [1] | viability of chemotherapy-resistant ovarian cells (CP70) [2] | reducing PTK6 protein levels / suppress PTK6 expression [3] | growth and invasive branching in 3D cultures [4]
1 | Cc1ncsc1-c1ccc(CNC(=O)[C@@H]2C[C@@H](O)CN2C(=O)[C@@H](NC(=O)CCCCCCNC(=O)CN2CCN(C(=O)c3ccc(Nc4nc(C5CC5)cn5c(-c6cn[nH]c6)cnc45)c(F)c3)CC2)C(C)(C)C)cc1 [YX39-103, (2S,4R)-1-((S)-2-(7-(2-(4-(4-((6-cyclopropyl-3-(1H-pyrazol-4-yl)imidazo[1,2-a]pyrazin-8-yl)amino)-3-fluorobenzoyl)piperazin-1-yl)acetamido)heptanamido)-3,3-dimethylbutanoyl)-4-hydroxy-N-(4-(4-methylthiazol-5-yl)benzyl)pyrrolidine-2-carboxamide] | significantly impaired viability of MCF7 cells in a dose-dependent manner | Suppressed Viability | effective in reducing PTK6 protein levels | significantly suppressed growth and invasive branching
2 | O=C1CCC(N2C(=O)c3cccc(NCCOCCOCCOCCC(=O)N4CCN(C(=O)c5ccc(Nc6nc(C7CC7)cn7c(-c8cn[nH]c8)cnc67)c(F)c5)CC4)c3C2=O)C(=O)N1 (stereo not shown) [YX79-37, 4-((2-(2-(2-(3-(4-(4-((6-cyclopropyl-3-(1H-pyrazol-4-yl)imidazo[1,2-a]pyrazin-8-yl)amino)-3-fluorobenzoyl)piperazin-1-yl)-3-oxopropoxy)ethoxy)ethoxy)ethyl)amino)-2-(2,6-dioxopiperidin-3-yl)isoindoline-1,3-dione] |  |  | potently suppress PTK6 expression | 
3 | Cc1ncsc1-c1ccc(CNC(=O)[C@@H]2C[C@@H](O)CN2C(=O)[C@@H](NC(=O)COCC(=O)N2CCN(C(=O)c3ccc(Nc4nc(C5CC5)cn5c(-c6cn[nH]c6)cnc45)c(F)c3)CC2)C(C)(C)C)cc1 [YX79-40, (2S,4R)-1-((S)-2-(2-(2-(4-(4-((6-cyclopropyl-3-(1H-pyrazol-4-yl)imidazo[1,2-a]pyrazin-8-yl)amino)-3-fluorobenzoyl)piperazin-1-yl)-2-oxoethoxy)acetamido)-3,3-dimethylbutanoyl)-4-hydroxy-N-(4-(4-methylthiazol-5-yl)benzyl)pyrrolidine-2-carboxamide] |  |  | potently suppress PTK6 expression | 
4 | Cc1ncsc1-c1ccc(CNC(=O)[C@@H]2C[C@@H](O)CN2C(=O)[C@@H](NC(=O)COCCOCC(=O)N2CCN(C(=O)c3ccc(Nc4nc(C5CC5)cn5c(-c6cn[nH]c6)cnc45)c(F)c3)CC2)C(C)(C)C)cc1 [YX79-41, (2S,4R)-1-((S)-2-(2-(2-(2-(4-(4-((6-cyclopropyl-3-(1H-pyrazol-4-yl)imidazo[1,2-a]pyrazin-8-yl)amino)-3-fluorobenzoyl)piperazin-1-yl)-2-oxoethoxy)ethoxy)acetamido)-3,3-dimethylbutanoyl)-4-hydroxy-N-(4-(4-methylthiazol-5-yl)benzyl)pyrrolidine-2-carboxamide] |  |  | potently suppress PTK6 expression | 
5 | Cc1ncsc1-c1ccc(CNC(=O)[C@@H]2C[C@@H](O)CN2C(=O)[C@@H](NC(=O)COCCOCCOCC(=O)N2CCN(C(=O)c3ccc(Nc4nc(C5CC5)cn5c(-c6cn[nH]c6)cnc45)c(F)c3)CC2)C(C)(C)C)cc1 [YX79-42, (2S,4R)-1-((S)-2-(tert-butyl)-14-(4-(4-((6-cyclopropyl-3-(1H-pyrazol-4-yl)imidazo[1,2-a]pyrazin-8-yl)amino)-3-fluorobenzoyl)piperazin-1-yl)-4,14-dioxo-6,9,12-trioxa-3-azatetradecanoyl)-4-hydroxy-N-(4-(4-methylthiazol-5-yl)benzyl)pyrrolidine-2-carboxamide] |  |  | potently suppress PTK6 expression | 
6 | Cc1ncsc1-c1ccc(CNC(=O)[C@@H]2C[C@@H](O)CN2C(=O)[C@@H](NC(=O)CCCCCCC(=O)NCCN2CCN(C(=O)c3ccc(Nc4nc(C5CC5)cn5c(-c6cn[nH]c6)cnc45)c(F)c3)CC2)C(C)(C)C)cc1 [YX79-59, N^1-(2-(4-(4-((6-cyclopropyl-3-(1H-pyrazol-4-yl)imidazo[1,2-a]pyrazin-8-yl)amino)-3-fluorobenzoyl)piperazin-1-yl)ethyl)-N^8-((S)-1-((2S,4R)-4-hydroxy-2-((4-(4-methylthiazol-5-yl)benzyl)carbamoyl)pyrrolidin-1-yl)-3,3-dimethyl-1-oxobutan-2-yl)octanediamide] |  |  | potently suppress PTK6 expression | 
7 | Cc1ncsc1-c1ccc(CNC(=O)[C@@H]2C[C@@H](O)CN2C(=O)[C@@H](NC(=O)COCCOCC(=O)NCCN2CCN(C(=O)c3ccc(Nc4nc(C5CC5)cn5c(-c6cn[nH]c6)cnc45)c(F)c3)CC2)C(C)(C)C)cc1 [YX79-65, (2S,4R)-1-((S)-2-(tert-butyl)-14-(4-(4-((6-cyclopropyl-3-(1H-pyrazol-4-yl)imidazo[1,2-a]pyrazin-8-yl)amino)-3-fluorobenzoyl)piperazin-1-yl)-4,11-dioxo-6,9-dioxa-3,12-diazatetradecanoyl)-4-hydroxy-N-(4-(4-methylthiazol-5-yl)benzyl)pyrrolidine-2-carboxamide] |  |  | potently suppress PTK6 expression | 
